The source of these data is patent publication US7307087B2, “Treatment of affective disorders by the combined action of a nicotinic receptor agonist and a monoaminergic substance” (Neurosearch A/S, priority 2000, dated 2007).

For series [1], the system named is NMRI mice. The series can be described thus: Mouse Forced Swim Test (mFST). It counts as in vivo. To be noted: compound alone, 0.3, 1, 3, 10 mg/kg s.c., 30 minutes pre-treatment. Here is the method:
The Forced Swim Test therefore is considered predictive of a potential antidepressant pharmacological effect.
Female NMRI mice (of 20-25 g) are habituated to the laboratory (a 12 hour light/dark cycle) for at least 16 hours before the experiment.
30 minutes after s.c. injection of either vehicle or drug, the mouse is placed in a glass beaker (d=16 cm; 5000 ml) with water (24° C.) up till 10 cm from the top edge. For the subsequent 6 minutes the duration of immobility defined as swim speed less than 2.5 cm/minute, and forced swim distance defined as distance swum with a speed above 5 cm/minute, is recorded. There are 8 mice in each group.
The activity of the mouse is tracked by the View Point system for the measurement of distance, immobility, and speed.
Time of immobility ±SEM (seconds) and forced swim distance ±SEM (cm) in 15 seconds time intervals are presented and plotted in SigmaPlot. Mean total immobility time and total swim distance in the time interval 60-360 seconds are calculated and presented for each group. The dose showing significant difference from the vehicle treated group is reported as the Minimal Effective Dose (MED s.c. mg/kg).

Series [2] concerns NMRI mice. Conditions: systemic administration; mice in a small water pool; background statement; cited from earlier work.

Each structure is given as a SMILES string.

The melting point is the temperature, or range, at which the solid turns liquid. On to `Clc1cncc(N2CCNCC2)c1.O=C(O)/C=C/C(=O)O`, for which the melting point lay in the range of 195 to 196 °C.
As for `Ic1ccc(N2CCNCC2)nn1.O=C(O)/C=C/C(=O)O`, the melting point fell in the range of 187 to 190 °C.
With `O=C(O)/C=C/C(=O)O.c1ccc2c(c1)ncn2-c1ccc(N2CCNCC2)nn1`, the melting point is 217 °C.
Still for that read-out and setting: the value for `CN1C2CCC1CN(c1ccccc1)CC2.O=C(O)/C=C/C(=O)O` (racemic) was 143.9 °C.
With `Cl.Cl.Clc1ccc(N2CCNCC2)cn1` [Compound 1C3, 1-(6-Chloro-3-pyridyl)-piperazine Dihydrochloric Acid Salt], the forced swimming entry with NMRI mice [1] was “did not affect forced swimming”.
Regarding `CNCCCN1c2ccccc2CCc2ccccc21` [Desipramine], the forced swim distance entry in the series with NMRI mice [2] is recorded as “induces an increase in the forced swim distance”.
